Results from patent US9334278B2, “Pyrrolo[2,3-B]pyrazines as SYK inhibitors” (Hoffmann-La Roche Inc., priority 2012, dated 2016).
pIC50: −log10 of the molar value.

Key:
[1] = system: Human B cell lymphoma cell line Ramos; test: Ramos Calcium Influx FLIPR Assay; assay type: cell-based; conditions: Ramos cells, anti-human IgM 10 μg/mL stimulation, read-out: RAMOS_IC50
Protocol: Ramos Calcium Influx FLIPR Assay
Human B cell lymphoma cell line Ramos was cultivated in RPMI-1640 with 10% Fetal Bovine Serum (Invitrogen). Cells were seeded into assay plate and loaded with calcium dye by adding 30 μl of dye loading buffer according to manufacturer's instruction (Beckton Dickinson Calcium Kit, Cat#80500). The cells were then treated with serial diluted compounds for 30 min before stimulation. Baseline fluorescence was recorded for about 20 seconds followed by stimulation with mouse anti-human IgM (10 μg/mL, clone M2E6, Antibody Solutions Inc.) for Ramos cells, and record of the maximal fluorescent counts in each well. Maximal counts divided by baseline counts, defined as fold change from baseline for each well, was used for IC50 calculation.

[2] = system: B cell CD69 up-regulation in human whole blood; test: B Cell CD69 Up-Regulation Assay in Human Whole Blood; assay type: cell-based; conditions: anti-human IgM 50 μg/mL for 20 h, CD69hi CD20+ B cells
Protocol: B Cell CD69 Up-Regulation Assay in Human Whole Blood
Human Blood was collected from healthy volunteers into Vacutainers (BD Biosciences, San Jose, Calif.) containing sodium heparin. Test compound was suspended in DMSO and nine half-log serial dilutions were made. The concentration of […] in the assay was 0.5%. 100 μL whole blood was pre-incubated with compound for 30 min and then stimulated with goat F(ab′)2 anti-human IgM (50 μg/mL, Southern Biotech) for 20 h. At the end of the 20 hour incubation, samples were incubated with fluorochrome-conjugated antibodies, PE mouse anti-human CD20 and APC Mouse anti-human CD69 (BD Biosciences), for 30 minutes. Samples were then lysed with Lyse solution (BD) and washed with PBS containing 2% fetal bovine serum (FBS). Fluorescent signals were acquired on flow cytometer LSR II (BD) and data were analyzed by Flow Jo. The percentage of activated (CD69hi) B-cell lymphocytes (CD20+) were determined using un-stimulated (negative control) and stimulated (positive control) wells as reference guidelines. The percentage inhibition was calculated and an IC50 curve was constructed using GraphPad Prism software with sigmoidal curve fitting.

[3] = biological target: recombinant human SYK360-635 (Spleen Tyrosine Kinase) (Homo sapiens (Human), UniProt P43405); test: SYK kinase assay (33P filtration, IC50 of SYK inhibition); conditions: read-out: ENZYME_FILTRATION_IC50; SYK 0.5 nM, ATP 20 μM, 33P filtration
Protocol: Determination of IC50 of Spleen Tyrosine Kinase (SYK) inhibition:
SYK kinase assay is a standard kinase assay adapted to a 96 well plate format. This assay is performed in 96-well format for IC50 determination with 8 samples which represented 10 half log dilutions and a 40 μL reaction volume. The assay measures the incorporation of radiolabeled ^33P γATP into an N-terminally biotinylated peptide substrate, derived from naturally occurring phosphoacceptor consensus sequence (Biotin-11aa DY*E). Phosphorylated products were detected upon termination of reactions with EDTA and the addition of Streptavidin coated beads.
BSA: Bovine Serum Albumin Fraction V, fatty acid free (Roche Diagnostics GmbH, Cat. No. 9100221) diluted to a final concentration of 0.1%
Assay Dilution Buffer (ADB): 50 mM HEPES, 0.1 mM EGTA, 0.1 mM Na Vanadate, 0.1 mM (3-glycerophosphate, 10 mM MgCl2, 1 mM DTT, 0.1% BSA, pH 7.5
Bead wash buffer: 10 g/L PBS (Phosphate buffered saline) with 2M NaCl+1% phosphoric acid.
DMSO and the mixture was incubated for 10 min at RT.
The kinase reaction was initiated by the addition of 10 μL 4× substrate cocktail containing the DYE peptide substrate [0 or 5 μM], ATP [20 μM] and ^33PγATP [2 μCi/r×n]. After incubation at 30° C. for 15 min, the reaction was terminated by the transfer of 25 μL of the reaction sample to a 96 well 0.65 μm Millipore MADVNOB membrane/plate containing 200 μL 5 mM EDTA and 20% Streptavidine coated beads in PBS.
The unbound radionucleotides were washed under vacuum with 3×250 μL 2M NaCl; 2×250 μL 2M NaCl+1% phosphoric acid; 1×250 μL H2O. After the last wash membrane/plates were transferred to an adaptor plate, heat dried for 15 min at 60° C., and 50 μL scintillation cocktail was added to each well and 4 h later the amount of radioactivity was counted in a top counter.

pIC50 [1]	pIC50 [2]	pIC50 [3]	SMILES
7.12	5.67	8.49	Cc1ccc(Nc2cnc3[nH]cc(C(=O)NC(C)(C)C)c3n2)cc1 [Compound I-12, N-tert-butyl-2-(p-tolylamino)-5H-pyrrolo[2,3-b]pyrazine-7-carboxamide]
6.59	6.04	7.37	Cc1ccc(Nc2cnc3[nH]cc(C(=O)NC(C)C)c3n2)nc1 [Compound I-4, N-isopropyl-2-(5-methylpyridin-2-ylamino)-5H-pyrrolo[2,3-b]pyrazine-7-carboxamide]
5.44	6.20	6.93	CC(C)(C)NC(=O)c1c[nH]c2ncc(Nc3ccc(S(C)(=O)=O)nc3)nc12 [Compound I-23, N-tert-butyl-2-(6-(methylsulfonyl)pyridin-3-ylamino)-5H-pyrrolo[2,3-b]pyrazine-7-carboxamide]
7.03	6.46	7.81	Cc1cc(Nc2cnc3[nH]cc(C(=O)NC(C)(C)C)c3n2)[nH]n1 [Compound I-9, N-tert-butyl-2-(3-methyl-1H-pyrazol-5-ylamino)-5H-pyrrolo[2,3-b]pyrazine-7-carboxamide]
6.55	6.59	6.79	Cc1ncc(Nc2cnc3[nH]cc(C(=O)NC(C)(C)C)c3n2)cn1 [Compound I-7, N-tert-butyl-2-(2-methylpyrimidin-5-ylamino)-5H-pyrrolo[2,3-b]pyrazine-7-carboxamide]
7.16	6.72	7.89	CC(C)(C)NC(=O)c1c[nH]c2ncc(Nc3cccc(S(C)(=O)=O)c3)nc12 [Compound I-13, N-tert-butyl-2-(3-(methylsulfonyl)phenylamino)-5H-pyrrolo[2,3-b]pyrazine-7-carboxamide]
6.56	6.57	7.01	Cc1nn(C)cc1Nc1cnc2[nH]cc(C(=O)NC(C)(C)C)c2n1 [Compound I-30, N-tert-butyl-2-(1,3-dimethyl-1H-pyrazol-4-ylamino)-5H-pyrrolo[2,3-b]pyrazine-7-carboxamide]
6.99	6.74	7.44	CCn1cc(Nc2cnc3[nH]cc(C(=O)NC(C)(C)C)c3n2)cn1 [Compound I-14, N-tert-butyl-2-(1-ethyl-1H-pyrazol-4-ylamino)-5H-pyrrolo[2,3-b]pyrazine-7-carboxamide]
6.94	6.37	7.77	Cc1ccc(Nc2cnc3[nH]cc(C(=O)NC(C)(C)C)c3n2)cn1 [Compound I-6, N-tert-butyl-2-(6-methylpyridin-3-ylamino)-5H-pyrrolo[2,3-b]pyrazine-7-carboxamide]
